The source made the active and inactive calls. The rule behind the calls is not given here.
Key:
BMDM = assay: Effect on STING level in mouse BMDM cells at 2.5 to 20 uM incubated for 8 hrs by Western blot analysis; assay type: functional, cell-based; details: dose 2.5-20 µM
[1] = target: Stimulator of interferon genes protein (Homo sapiens) (UniProt Q86WV6); assay: Induction of STING dimerization in human HT-1080 cells at 2.5 to 20 uM measured after 5 hrs by Western blot analysis; assay type: cell-based; details: filed as agonist, dose 2.5-20 µM
Sequence of Stimulator of interferon genes protein (Homo sapiens) (Q86WV6 whole entry): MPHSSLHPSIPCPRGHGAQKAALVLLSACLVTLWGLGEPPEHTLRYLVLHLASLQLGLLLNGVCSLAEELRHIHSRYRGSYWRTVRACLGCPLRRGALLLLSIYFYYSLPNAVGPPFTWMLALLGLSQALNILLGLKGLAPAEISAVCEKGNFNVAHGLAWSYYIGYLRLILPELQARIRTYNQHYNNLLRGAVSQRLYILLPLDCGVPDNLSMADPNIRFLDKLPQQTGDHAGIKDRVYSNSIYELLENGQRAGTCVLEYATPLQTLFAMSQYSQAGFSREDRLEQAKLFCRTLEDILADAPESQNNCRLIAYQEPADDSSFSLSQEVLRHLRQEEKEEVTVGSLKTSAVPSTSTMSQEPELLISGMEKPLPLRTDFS

RAW264.7 [2] = assay: Cytotoxicity against mouse RAW264.7 cells assessed as cell viability measured after 72 hrs by MTT assay; assay type: functional, cell-based; details: RAW264.7, 72 h
Mus musculus [3] = assay: Induction of immune-activation effect in wild type female BALB/c mouse assessed as increase in serum IFNbeta level at 15 to 30 mg/kg, ip measured after 24 to 48 hrs by ELISA relative to control; assay type: functional, organism-based; details: dose 15-30 mg/kg, time 24-48 hrs
[4] = tested on: Stimulator of interferon genes protein (Homo sapiens), Q86WV6 [V113Q,G114Q,P115Q]; assay: Induction of STING V113Q/G114Q/P115Q mutant (unknown origin) mediated TBK1 phosphorylation in human HeLa cells transfected with STING C148A mutant at 10 uM measured after 5 hr by Western blot analysis; assay type: cell-based; details: filed as agonist
Sequence of Stimulator of interferon genes protein (Homo sapiens), Q86WV6 [V113Q,G114Q,P115Q] (Q86WV6 whole entry V113Q/G114Q/P115Q): as the sequence (Q86WV6 whole entry) above, with V113Q, G114Q, P115Q counted along it

[5] = target: Stimulator of interferon genes protein (Homo sapiens) (UniProt Q86WV6); assay: Induction of STING-dependent gene expression in human HT-1080 cells assessed as TNFalpha mRNA expression at 20 uM incubated for 8 hrs by qRT-PCR analysis; assay type: cell-based; details: filed as agonist
[6] = target: Stimulator of interferon genes protein (Homo sapiens) (UniProt Q86WV6); assay: Agonist activity at STING in human HT-1080 cells assessed as increase in diABZI-induced TBK1 phosphorylation at 2.5 to 20 uM measured after 5 hrs by Western blot analysis; assay type: cell-based; details: filed as agonist, dose 2.5-20 µM
[7] = target: Stimulator of interferon genes protein (Homo sapiens) (UniProt Q86WV6); assay: Induction of STING-dependent gene expression in human HT-1080 cells assessed as increase in ADU-S100 induced IFNbeta mRNA expression at 20 uM incubated for 8 hrs by qRT-PCR analysis; assay type: cell-based; details: filed as agonist
[8] = target: Stimulator of interferon genes protein (Homo sapiens) (UniProt Q86WV6); assay: Induction of STING-dependent gene expression in human HT-1080 cells assessed as IFNbeta mRNA expression at 20 uM incubated for 8 hrs by qRT-PCR analysis; assay type: cell-based; details: filed as agonist
[9] = target: Stimulator of interferon genes protein (Homo sapiens) (UniProt Q86WV6); assay: Induction of wild type STING mediated TBK1 phosphorylation in human HeLa cells transfected with wild type STING at 10 uM measured after 5 hr by Western blot analysis; assay type: cell-based; details: filed as agonist
[10] = target: Stimulator of interferon genes protein (Homo sapiens) (UniProt Q86WV6); assay: Induction of STING-dependent gene expression in human THP1 cells assessed as TNFalpha mRNA expression at 2.5 to 20 uM incubated for 8 hrs by qRT-PCR analysis; assay type: cell-based; details: THP-1, filed as agonist, dose 2.5-20 µM
[11] = Antiviral activity against rhesus rotavirus assessed as inhibition of replication by qRT-PCR analysis; assay type: functional, Simian rotavirus A strain RRV
SARS-CoV-2 = assay: Antiviral activity against SARS-CoV-2 assessed as inhibition of replication by qRT-PCR analysis; assay type: functional, organism-based; details: Severe acute respiratory syndrome coronavirus 2
[12] = target: T1, Stimulator of interferon genes protein (Mus musculus) (UniProt Q3TBT3); assay: Induction of STING dimerization in mouse embryonic fibroblast cells at 2.5 to 20 uM measured after 5 hrs by Western blot analysis; assay type: cell-based; details: MEF, filed as agonist, dose 2.5-20 µM
T1 sequence (whole entry): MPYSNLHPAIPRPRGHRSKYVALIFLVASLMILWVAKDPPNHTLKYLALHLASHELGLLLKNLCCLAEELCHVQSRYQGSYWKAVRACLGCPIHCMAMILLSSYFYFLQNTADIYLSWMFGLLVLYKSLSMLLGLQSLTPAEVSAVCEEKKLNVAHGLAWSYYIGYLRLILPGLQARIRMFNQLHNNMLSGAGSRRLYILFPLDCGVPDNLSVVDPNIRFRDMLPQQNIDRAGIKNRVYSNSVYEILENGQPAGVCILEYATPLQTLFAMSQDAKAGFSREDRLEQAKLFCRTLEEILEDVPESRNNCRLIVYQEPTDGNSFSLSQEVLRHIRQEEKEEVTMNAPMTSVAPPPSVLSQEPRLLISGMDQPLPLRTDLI

[13] = target: Stimulator of interferon genes protein (Homo sapiens) (UniProt Q86WV6); assay: Induction of oligomerization of STING in human HeLa cells transfected with wild type STING (unknown origin) assessed as intracellular puncta formation at 10 uM measured after 1 hr by DAPI staining based immunofluorescence microscopy; assay type: cell-based; details: filed as agonist
[14] = target: T1, Stimulator of interferon genes protein (Mus musculus); assay: Induction of STING dimerization in mouse BMDM cells at 2.5 to 20 uM measured after 5 hrs by Western blot analysis; assay type: cell-based; details: filed as agonist, dose 2.5-20 µM
[15] = target: Stimulator of interferon genes protein (Homo sapiens) (UniProt Q86WV6); assay: Induction of STING dimerization in human THP1 cells at 2.5 to 20 uM measured after 5 hrs by Western blot analysis; assay type: cell-based; details: THP-1, filed as agonist, dose 2.5-20 µM
HT-1080 [16] = assay: Effect on TBK1 phosphorylation in STING - knockout human HT1080 cells at 20 uM measured after 5 hrs by Western blot analysis; assay type: functional, cell-based
HT-1080 [17] = assay: Cytotoxicity against human HT-1080 cells assessed as cell viability measured after 72 hrs by MTT assay; assay type: functional, cell-based; details: HT-1080, 72 h
[18] = target: Stimulator of interferon genes protein (Homo sapiens) (UniProt Q86WV6); assay: Agonist activity at STING in human HT-1080 cells assessed as increase in TBK1 phosphorylation at 2.5 to 20 uM measured after 5 hrs by Western blot analysis; assay type: cell-based; details: filed as agonist, dose 2.5-20 µM
[19] = target: Stimulator of interferon genes protein (Homo sapiens) (UniProt Q86WV6); assay: Induction of wild type STING dimerization in human HeLa cells transfected with wild type STING at 10 uM measured after 5 hr by Western blot analysis; assay type: cell-based; details: filed as agonist
Vero = assay: Cytotoxicity against interferon production defective African green monkey Vero cells assessed as cell viability measured after 72 hrs by MTT assay; assay type: functional, cell-based; details: Chlorocebus sabaeus
HT-1080 [20] = assay: Synergistic increase in […]-induced TBK1 phosphorylation in human HT-1080 cells by Western blot analysis; assay type: functional, cell-based
HT-1080 [21] = assay: Synergistic increase in HSV infection-induced TBK1 phosphorylation in human HT-1080 cells by Western blot analysis; assay type: functional, cell-based
[22] = target: Stimulator of interferon genes protein (Homo sapiens) (UniProt Q86WV6); assay: Induction of STING-dependent gene expression in human THP1 cells assessed as IFNbeta mRNA expression at 2.5 to 20 uM incubated for 8 hrs by qRT-PCR analysis; assay type: cell-based; details: THP-1, filed as agonist, dose 2.5-20 µM
HEK-293T = assay: Cytotoxicity against STING-deficient human 293T cells assessed as cell viability measured after 72 hrs by MTT assay; assay type: functional, cell-based
Mus musculus [23] = assay: Induction of immune-activation effect in wild type female BALB/c mouse assessed as increase in serum TNFalpha level at 15 to 30 mg/kg, ip measured after 24 to 48 hrs by ELISA relative to control; assay type: functional, organism-based; details: dose 15-30 mg/kg, time 24-48 hrs
[24] = target: Stimulator of interferon genes protein (Homo sapiens) (UniProt Q86WV6); assay: Agonist activity at STING in human HT-1080 cells assessed as increase in ADU-S100-induced TBK1 phosphorylation at 2.5 to 20 uM measured after 5 hrs by Western blot analysis; assay type: cell-based; details: filed as agonist, dose 2.5-20 µM
[25] = tested on: Stimulator of interferon genes protein (Homo sapiens), Q86WV6 [C88S,C91S]; assay: Induction of oligomerization of STING C88S/C91S (unknown origin) double mutant in human HeLa cells transfected with wild type STING assessed as intracellular puncta formation at 10 uM measured after 1 hr by DAPI staining based immunofluorescence microscopy; assay type: cell-based; details: filed as agonist
Sequence of Stimulator of interferon genes protein (Homo sapiens), Q86WV6 [C88S,C91S] (Q86WV6 whole entry C88S/C91S): as the sequence (Q86WV6 whole entry) above, with C88S, C91S counted along it

[26] = target: Stimulator of interferon genes protein (Homo sapiens) (UniProt Q86WV6); assay: Agonist activity at STING in human THP1 cells assessed as increase in TBK1 phosphorylation at 2.5 to 20 uM measured after 5 hrs by Western blot analysis; assay type: cell-based; details: THP-1, filed as agonist, dose 2.5-20 µM
[27] = target: Stimulator of interferon genes protein (Homo sapiens) (UniProt Q86WV6); assay: Induction of STING-dependent gene expression in human HT-1080 cells assessed as increase in diABZI induced IFNbeta mRNA expression at 20 uM incubated for 8 hrs by qRT-PCR analysis; assay type: cell-based; details: filed as agonist
[28] = tested on: Stimulator of interferon genes protein (Homo sapiens), Q86WV6 [C91S]; assay: Induction of oligomerization of STING C91S (unknown origin) mutant in human HeLa cells transfected with wild type STING assessed as intracellular puncta formation at 10 uM measured after 1 hr by DAPI staining based immunofluorescence microscopy; assay type: cell-based; details: filed as agonist
Sequence of Stimulator of interferon genes protein (Homo sapiens), Q86WV6 [C91S] (Q86WV6 whole entry C91S): as the sequence (Q86WV6 whole entry) above, with C91S counted along it

[29] = target: T1, Stimulator of interferon genes protein (Mus musculus); assay: Agonist activity at STING in mouse BMDM cells assessed as increase in TBK1 phosphorylation at 2.5 to 20 uM measured after 5 hrs by Western blot analysis; assay type: cell-based; details: filed as agonist, dose 2.5-20 µM
[30] = Antiviral activity against HSV infected in human HT-1080 cells assessed as reduction viral RNA expression pretreated for 1 hr followed by infection measured after 18 hrs by qRT-PCR analysis; assay type: functional, cell-based; details: Herpes simplex virus unknown type
RAW264.7 [31] = assay: Synergistic increase in HSV infection-induced TBK1 phosphorylation in mouse RAW264.7 cells by Western blot analysis; assay type: functional, cell-based
[32] = target: Stimulator of interferon genes protein (Homo sapiens) (UniProt Q86WV6); assay: Induction of STING-dependent gene expression in human HT-1080 cells assessed as increase in […] induced IFNbeta mRNA expression at 20 uM incubated for 8 hrs by qRT-PCR analysis; assay type: cell-based; details: filed as agonist
[33] = tested on: Herpes simplex virus unknown type; assay: Antiviral activity against HSV infected in human HT-1080 cells assessed as reduction viral protein ICP0 expression at 2.5 to 20 uM pretreated for 1 hr followed by infection measured after 18 hrs by Western blot analysis; assay type: functional, cell-based; details: dose 2.5-20 µM, time 19.0 hrs
[34] = target: T1, Stimulator of interferon genes protein (Mus musculus); assay: Agonist activity at STING in mouse embryonic fibroblast cells assessed as increase in TBK1 phosphorylation at 2.5 to 20 uM measured after 5 hrs by Western blot analysis; assay type: cell-based; details: MEF, filed as agonist, dose 2.5-20 µM
RAW264.7 [35] = assay: Synergistic increase in […]-induced TBK1 phosphorylation in mouse RAW264.7 cells by Western blot analysis; assay type: functional, cell-based
[36] = tested on: Stimulator of interferon genes protein (Homo sapiens), Q86WV6 [C148A]; assay: Induction of STING C148A mutant (unknown origin) mediated TBK1 phosphorylation in human HeLa cells transfected with STING C148A mutant at 10 uM measured after 5 hr by Western blot analysis; assay type: cell-based; details: filed as agonist
Sequence of Stimulator of interferon genes protein (Homo sapiens), Q86WV6 [C148A] (Q86WV6 whole entry C148A): as the sequence (Q86WV6 whole entry) above, with C148A counted along it

THP-1 = assay: Effect on STING level in human THP1 cells at 2.5 to 20 uM incubated for 8 hrs by Western blot analysis; assay type: functional, cell-based; details: dose 2.5-20 µM
[37] = target: Stimulator of interferon genes protein (Homo sapiens) (UniProt Q86WV6); assay: Agonist activity at STING in human HT-1080 cells assessed as increase in TBK1 phosphorylation at 20 uM measured after 5 hrs by Western blot analysis; assay type: cell-based; details: filed as agonist

O=C(NCCCCCNC(=O)c1ccc([N+](=O)[O-])o1)c1ccc([N+](=O)[O-])o1
Activity (BMDM): inactive
Activity [1]: Active
IC50 (RAW264.7 [2]): 8.69 µM
Activity (Mus musculus [3]): Active
Activity [4]: Active
Activity [5]: Active
Activity [6]: Active
Activity [7]: Active
Activity [8]: Active
Activity [9]: Active
Activity [10]: Active
EC50 [11]: 6.8 µM
EC50 (SARS-CoV-2): 10.7 µM
Activity [12]: Active
Activity [13]: Active
Activity [14]: Active
Activity [15]: Active
Activity (HT-1080 [16]): inactive
IC50 (HT-1080 [17]): 9.31 µM
Activity [18]: Active
Activity [19]: Active
IC50 (Vero): 28.4 µM
Activity (HT-1080 [20]): Active
Activity (HT-1080 [21]): inactive
Activity [22]: Active
IC50 (HEK-293T): 22.4 µM
Activity (Mus musculus [23]): Active
Activity [24]: Active
Activity [25]: Active
Activity [26]: Active
Activity [27]: Active
Activity [28]: Active
Activity [29]: Active
EC50 [30]: 6.15 µM
Activity (RAW264.7 [31]): Active
Activity [32]: Active
Activity [33]: Active
Activity [34]: Active
Activity (RAW264.7 [35]): Active
Activity [36]: Active
Activity (THP-1): inactive
Activity [37]: Active
